Assays:
[1] = system: MS2; assay: MS2 coliphage virus carrier test; conditions: ceramic tiles and stainless steels, 1 min contact time, 20-200 ppm, infectivity
[2] = system: Staphylococcus aureus (MRSA) ATCC #33591; assay: Microbial Time Kill Assay; assay type: cell-based; conditions: 150 ppm AFC, 15 second contact time
[3] = Pilot study HOCl versus Sulfamylon as irrigant over excised and grafted burn
[4] = system: Candida albicans ATCC #10231; assay: Microbial Time Kill Assay; assay type: cell-based; conditions: 150 ppm AFC, 15 second contact time
Protocol: Fungicidal activity tests were performed using hypochlorous acid (140-150 ppm) against Candida albicans ATCC 10231 and Aspergillus niger ATCC 16404. Stock culture of Candida albicans ATCC 10231 and Aspergillus niger ATCC 16404 were grown and maintained on Malt Extract Agar at 30° C. […] All samples were serially diluted, plated out on Tryptic Soy Agar, incubated at 37° C. for 3 days and colonies forming units counted.

[5] = system: Pseudomonas aeruginosa ATCC #9027; assay: Microbial Time Kill Assay; assay type: cell-based; conditions: 150 ppm AFC, 15 second contact time
[6] = system: Proteus mirabilis ATCC #43071; assay: Microbial Time Kill Assay; assay type: cell-based; conditions: 150 ppm AFC, 15 second contact time
[7] = Acute oral toxicity; conditions: 500 ppm AFC, single dose of 5 g/kg orally, observed up to 14 days
[8] = system: Bacteroides fragilis ATCC #25285; assay: Microbial Time Kill Assay; assay type: cell-based; conditions: 150 ppm AFC, 15 second contact time
[9] = system: coliphage MS2; assay: MS2 coliphage suspension test; assay type: cell-based; conditions: 20-200 mg/L, within a contact time of 20 seconds
[10] = system: Mycobacterium avium ATCC 15769; assay: Mycobactericidal suspension test; assay type: cell-based
Protocol: (§1) Broth cultures of either M. terrae (ATCC 15755) and M. avium (ATCC 15769) were grown for up to 35 days at 35° C. […] The plates were incubated for 4-5 weeks at 35° C. and colonies counted.

[11] = system: Mycobacterium terrae ATCC 15755; assay: Mycobactericidal suspension test; assay type: cell-based
Protocol: as §1

[12] = Delayed dermal sensitization in guinea pig maximization test; assay type: in vivo; conditions: intradermal injection and occlusive patch; scored 24 and 48 hours after patch removal; solution 690 ppm AFC, hydrogel 500 ppm AFC
[13] = system: Pseudomonas aeruginosa ATCC 15442; assay: Bactericidal suspension test; assay type: cell-based
[14] = system: Enterococcus faecium ATCC 10541; assay: Bactericidal suspension test; assay type: cell-based
[15] = system: Escherichia coli ATCC #8739; assay: Microbial Time Kill Assay; assay type: cell-based; conditions: 150 ppm AFC, 15 second contact time
[16] = system: Bacillus cereus CIP 7 803; assay: Sporicidal suspension test; assay type: cell-based
[17] = system: Klebsiella pneumonia ATCC #4352; assay: Microbial Time Kill Assay; assay type: cell-based; conditions: 150 ppm AFC, 15 second contact time
[18] = system: Enterococcus faecium (VRE); assay: Carrier test; assay type: cell-based; conditions: <180 ppm, glass slide carriers
[19] = system: Acinetobacter baumannii ATCC #19606; assay: Microbial Time Kill Assay; assay type: cell-based; conditions: 150 ppm AFC, 15 second contact time
[20] = system: Poliovirus Enterovirus 1; assay type: cell-based
[21] = Dermal irritation study (Draize); assay type: in vivo, New Zealand white rabbits; conditions: 0.5 ml, 689.5 ppm AFC, intact and abraded site; Draize at 24 and 72 hours
Protocol: A skin irritation study was conducted on six healthy New Zealand white rabbits. The test article (0.5 ml hypochlorous acid, 689.5 ppm AFC) was applied to one intact and one abraded site on the clipped back of each rabbit. Skin reactions were evaluated by the Draize technique at 24 and 72 hours after dosing and the primary irritation index was calculated. There was no erythema or edema noted at any time period and there were no abnormal physical signs noted during the observation period.

[22] = Ocular irritation study (Draize); assay type: in vivo, New Zealand white rabbits; conditions: 0.1 ml, 689.5 ppm AFC, conjunctival sac; Draize scoring days 1, 2 and 3 post dose
Protocol: An eye irritation study was conducted on six healthy New Zealand white rabbits, free from evidence of ocular irritation and corneal abnormalities. The test article (0.1 ml hypochlorous acid, 689.5 ppm AFC) was placed into the conjunctival sac of one eye of each rabbit. The contralateral eye served as a control. The eyes were examined and scored by the Draize technique for any evidence of irritation or abnormalities of the cornea, on days 1, 2, and 3 post dose. The primary eye irritation score of each rabbit, each day was calculated. All eyes appeared normal at each observation period and there were no abnormal physical signs noted.

[23] = system: Staphylococcus haemolyticus ATCC #29968; assay: Microbial Time Kill Assay; assay type: cell-based; conditions: 150 ppm AFC, 15 second contact time
[24] = system: Salmonella choleraesuis; assay: Carrier test; assay type: cell-based; conditions: <180 ppm, glass slide carriers
[25] = hypochlorous acid 40-180 ppm, suspension test

For OCl [hypochlorous acid], the “inactivation of MS2” value [1] was over 3 log10, the “% Reduction (% Kill)” value [2] was over 99.999% and the “HOCl Solution Log10” value [2] was at most 1. The “HOCl Solution Survivors” value [2] was under 10, the “Log Reduction” value [2] was at least 5.20 and the “safety profile (adverse effects)” value [3] was “absence of adverse effects”. The “graft take and infection prevention compared with Sulfamylon” value ([3]; 150-180 ppm AFC) was “equivalency”, the “pain reduction (visual analogue scale) compared with Sulfamylon group” value ([3]; 150-180 ppm AFC) was “better” and the “% Reduction (% Kill)” value [4] was over 99.999%. For the same compound, the “HOCl Solution Log10” value [4] was at most 1, the “HOCl Solution Survivors” value [4] was under 10 and the “Log Reduction” value [4] was at least 5.63. For the same compound, the “% Reduction (% Kill)” value [5] was over 99.999%, the “HOCl Solution Log10” value [5] was at most 1 and the “HOCl Solution Survivors” value [5] was under 10. The “Log Reduction” value [5] was at least 5.11, the “% Reduction (% Kill)” value [6] was over 99.999% and the “HOCl Solution Log10” value [6] was at most 1. The “HOCl Solution Survivors” value [6] was under 10, the “Log Reduction” value [6] was at least 5.40 and the “mortality or evidence of toxicity” value [7] was “no mortality or evidence of toxicity”. The “% Reduction (% Kill)” value [8] was over 99.999%, the “HOCl Solution Log10” value [8] was at most 1 and the “HOCl Solution Survivors” value [8] was under 10. For the same compound, the “Log Reduction” value [8] was at least 5.66, the “reduction of MS2” value [9] was 3 log10 and the “contact time after which pass was achieved” value (shortened to “contact time”) [10, 25] was 15 s. The “Test Result (Log reduction)” value ([10]; in 5 min., 20° C. ± 1° C.) was >10^5 in 5 min, the “contact time” value [11, 25] was 15 s and the “Test Result (Log reduction)” value ([11]; in 5 min., 20° C. ± 1° C.) was >10^5 in 5 min. For the same compound, the “delayed dermal contact sensitization” value [12] was “no evidence of causing a delayed dermal contact sensitization”, the “contact time” value [13, 25] was 15 s and the “Test Result (Log reduction)” value ([13]; in 5 min., 20° C. ± 1° C.) was >10^5 in 5 min. The “contact time” value [14, 25] was 15 s, the “Test Result (Log reduction)” value ([14]; in 5 min., 20° C. ± 1° C.) was >10^5 in 5 min and the “% Reduction (% Kill)” value [15] was over 99.999%. The “HOCl Solution Log10” value [15] was at most 1, the “HOCl Solution Survivors” value [15] was under 10 and the “Log Reduction” value [15] was at least 5.28. The “contact time” value [16, 25] was 60 min, the “Test Result (Log reduction)” value ([16]; in 60 min., 20° C. ± 1° C.) was >10^6 in 60 min and the “% Reduction (% Kill)” value [17] was over 99.999%. The “HOCl Solution Log10” value [17] was at most 1, the “HOCl Solution Survivors” value [17] was under 10 and the “Log Reduction” value [17] was at least 5.70. The “Time to achieve pass” value [18] was 5 min, the “% Reduction (% Kill)” value [19] was over 99.999% and the “HOCl Solution Log10” value [19] was at most 1. The “HOCl Solution Survivors” value [19] was under 10, the “Log Reduction” value [19] was at least 5.15 and the “contact time” value [20, 25] was 15 min. For the same compound, the “Test Result (Log reduction)” value ([20]; in 15 min., 20° C. ± 1° C.) was >10^4 in 15 min, the dermal irritation [21] was “no dermal irritation” and the ocular irritation [22] was “no ocular irritation”. For the same compound, the “% Reduction (% Kill)” value [23] was over 99.999%, the “HOCl Solution Log10” value [23] was at most 1 and the “HOCl Solution Survivors” value [23] was under 10. For the same compound, the “Log Reduction” value [23] was at least 5.57 and the “Time to achieve pass” value [24] was 2 min.

— patent US10632147B2, “Methods and compositions for treating inflammatory disorders” (priority 2007, dated 2020)
